Bridge positions count the residues as written; N and C are the ends. Ends that are not written are not given here.

For data set [1], the system named is C. albicans ATCC 10231. Briefly: Intracellular ROS burst, H2DCFDA probe. Type of data set: cell-based, Candida albicans. Conditions: 1×, 8×, 32× MIC, 37°C, 30 min. How it is done: H2DCFDA is a cell-permeable probe for detecting intracellular ROS ([72]). C. albicans ATCC 10231 was cultured in YM medium to logarithmic stage in a constant-temperature shaking machine at 37°C, centrifuged at 1,000 × g for 5 min to remove the supernatant, and washed with normal saline three times, and then the fungal solution was diluted to an OD600 of 0.1. Different concentrations of blapstin (1× MIC, 8× MIC, 32× MIC) were added to diluted fungal suspension and incubated at 37°C for 30 min. H2O2 at 0.1 mM was used as the positive control, and 0.9% NaCl was used as the negative control. After incubation, the suspension was centrifuged at 1,000 × g for 5 min to discard the supernatant and leave the thallus precipitation. The H2DCFDA dye was dissolved with DMSO and diluted with 0.9% NaCl containing 15% DMSO to achieve a final concentration of 10 μM. The thallus precipitation was mixed with 1 mL of a […] H2DCFDA working solution to each tube, incubated at 37°C for 30 min, and then centrifuged at 1,000 × g for 5 min to remove the supernatant. […] One milliliter of 0.9% NaCl was added to each tube and analyzed with a multifunctional fluorescent enzyme labeling instrument (SynergyH1; Biotek, USA). The excitation/emission wavelengths were set at […], and the ROS burst was monitored. The experiment was repeated three times, with three biological replicates at a time.

The next data set relates to ion channel. Briefly: Ion channel inhibition. Conditions: stated in the discussion only, no method or channel given.
In data set [2] the test system is C. albicans ATCC 10231. Description: Cell membrane potential changes, DiSC3(5) staining. The format is cell-based, Candida albicans. Conditions: 16× MIC, 8× MIC and 1× MIC; 0.5 μM DiSC3(5), 100 mM KCl, measured for 60 min; dose-dependent; weaker than 10 μM valinomycin. How it is done:
DiSC3(5) is a fluorescent probe often used as a tracer dye to assess the mitochondrial membrane potential ([71]); therefore, we assessed the effects of blapstin on the cell membrane potential changes of C. albicans ATCC 10231 using DiSC3(5) staining. C. albicans ATCC 10231 was cultured in YM medium to logarithmic stage in a constant-temperature shaking machine at 37°C, centrifuged at 1,000 × g for 5 min to remove the supernatant, and washed with normal saline three times, and then normal saline containing 100 mM potassium chloride (KCl) was used to dilute the bacterial solution to an optical density at 600 nm (OD600) of 0.1. DiSC3(5) dye was dissolved by dimethyl sulfoxide (DMSO) into the mother solution and normal saline diluted with 15% DMSO so that the final concentration of DiSC3(5) added to the bacterial solution was 0.5 μM. The mixture was added to a special fluorescent 96-well plate with 190 μL in each well. The excitation/emission wavelengths were set at 622/670 nm, measurement was carried out with a multifunctional fluorescent enzyme labeling instrument (SynergyH1; Biotek, USA) until the value of the enzyme marker was stable, and then measurement was continued for 20 min. The final concentrations were 16× MIC, 8× MIC, and 1× MIC when 10 μL blapstin was added to the experimental group. […]

Data set [3] relates to established biofilms of C. albicans ATCC 10231. Description: Biofilm eradication assay (crystal violet). The conditions noted are these: 24 h preformed biofilm, 0.5× to 8× MIC, 37°C, absorbance at 600 nm. Type of data set: cell-based, Candida albicans. How it is done:
First, 100 μL of C. albicans ATCC 10231 suspension (1 × 10^6 CFU/mL) was added to each well of a sterile 96-well plate. The plate was incubated at 37°C for 24 h to make the biofilm adhere to the walls and washed three times with PBS. Next, 100 μL of serial dilutions of blapstin (0.5×, 1×, 2×, 4×, and 8× MIC) prepared using YM medium was added to the plate, followed by incubation at 37°C for 24 h. Fluconazole at 10 μM and clotrimazole at 10 μΜ were used as a positive control, and sterile 0.9% NaCl was used as a negative control. After incubation, the liquid in the plate was discarded and washed three times with PBS, followed by the addition of 1% crystal violet solution to each well and incubation at room temperature for 10 min. Finally, the plate was washed three times with PBS, and 100 μL of 95% ethanol was added per well. The percentage of biofilm removal was estimated by measuring the absorbance at 600 nm.

In another data set the test system is RAW 264.7 cells. Briefly: Cytotoxicity, CCK-8 assay. The conditions noted are these: from 7.03 μM to 225 μM, 24 h, CCK-8, absorbance at 450 nm; three independent experiments. The format is cell-based, mouse. As to the method: Cytotoxicity was determined using mouse RAW 264.7 cells (10^6 cells/mL). These cells were cultured in sterile 96-well microplates with RPMI 1640 medium (Corning, USA) in a 5% CO2 incubator at 37°C. The medium was supplemented with 10% fetal calf serum (FCS) and penicillin-streptomycin (100 U/mL each). Cytotoxicity was assessed using the cell counting kit-8 (CCK-8) assay (MCE, USA). After 24 h of incubation with serial dilutions of blapstin, 10 μL of CCK-8 solution was added to each well. The plate was further incubated for 1 to 4 h under standard cell growth conditions, and the residual absorbance was read at 450 nm. The experiments were repeated three times according to the manufacturer’s instructions.
In general terms: Tetrazolium assays rely on reduction of a dye to a coloured formazan, in cell work by metabolically active cells.

The subject of a further data set is C. albicans. Briefly: Thermostability of antifungal activity (paper disk assay). Type of data set: physicochemical, Candida albicans. Conditions: for Antifungal activity after heating: 20 μL of 225 μM, then paper disk assay on YM medium, 37°C, 18 h. As to the method: (i) Effects of temperature. In the test of thermostability of antifungal activity, (20 μL(225 μM) of blapstin was heated at different temperatures (20°C, 40°C, 60°C, 80°C, 90°C, and 100°C) for 30 min and cooled down at 4°C ([63]). Colistin E was used as the positive control, and 1.5% NaCl was used as the negative control. Then, these samples were transferred to the paper disks in the YM solid medium with C. albicans and incubated at 37°C for 18 h for the assay of antifungal activity.

Regarding “VRVGPCDQVCSRTNPEKDECCRAHGHSGHSSCYGGRMNCYG (disulfide 6-21, 10-32, 20-39 (inferred)) [Blapstin]”, the “Change in ROS fluorescence in C. albicans” value in the data set on C. albicans ATCC 10231 [1] was “increased”. Moreover, the “Ion channel inhibition activity” value with ion channel is reported as “did not show ion channel inhibition activity”. Moreover, in the data set on C. albicans ATCC 10231 [2], the “Cellular DiSC3(5) fluorescence (membrane potential) compared with negative control” value is reported as “increased significantly”. In addition, the “Eradication of established biofilms of C. albicans” value in data set [3] is “disrupted established biofilms”. In the data set on RAW 264.7 cells, the “Cytotoxicity in RAW 264.7 cells” value is “no obvious cytotoxicity”. Also, the “Antifungal activity after heating” value in the data set with C. albicans (20°C to 90°C for 30 min) was “full antifungal activity was retained”; in the data set on C. albicans (100°C for 30 min), “slightly reduced”. Besides, in the data set on C. albicans (heated 30 min, read-out antifungal activity toward C. albicans), the “Thermostable up to” value is “up to 90 °C”.
